Measured values reported in ChEMBL document CHEMBL2046282, “Structure-based optimization of aminopyridines as PKCθ inhibitors” (Bioorg Med Chem Lett, 2012).

Tests used:
[1] = biological target: Protein kinase C alpha type (Homo sapiens, UniProt P17252); experiment: Inhibition of PKCalpha
[2] = biological target: T1, Protein kinase C theta type (Homo sapiens, UniProt Q04759); experiment: Inhibition of PKCtheta
[3] = Selectivity ratio of Ki for PKA to Ki for PKCtheta
[4] = biological target: Protein kinase C delta type (Homo sapiens, UniProt Q05655); experiment: Inhibition of PKCdelta
[5] = Selectivity ratio of Ki for Src to Ki for PKCtheta
[6] = Selectivity ratio of Ki for GSK3beta to Ki for PKCtheta
[7] = biological target: T1, Protein kinase C theta type; experiment: Inhibition of PKCtheta-mediated IL-2 production by cell based assay
[8] = biological target: RAF proto-oncogene serine/threonine-protein kinase (Homo sapiens, UniProt P04049); experiment: Inhibition of c-Raf
[9] = biological target: Rho-associated protein kinase 1 (Homo sapiens, UniProt Q13464); experiment: Inhibition of ROCK1
Plasma = experiment: fCmax in Staphlyococcal enterotoxin B challenged Balb/c mouse plasma at 100 mg/kg, po after 2 hrs; format: ADME, organism-based; design: dose 100 mg/kg, route oral; settings: in vivo
[10] = biological target: Tyrosine-protein kinase Lyn (Homo sapiens, UniProt P07948); experiment: Inhibition of LYN
[11] = biological target: Tyrosine-protein kinase ITK/TSK (Homo sapiens, UniProt Q08881); experiment: Inhibition of ITK
[12] = biological target: Tyrosine-protein kinase Fyn (Homo sapiens, UniProt P06241); experiment: Inhibition of FYN
[13] = biological target: Phosphatidylinositol 4,5-bisphosphate 3-kinase catalytic subunit gamma isoform (Homo sapiens, UniProt P48736); experiment: Inhibition of PI3Kgamma
[14] = biological target: Protein kinase C epsilon type (Homo sapiens, UniProt Q02156); experiment: Inhibition of PKCepsilon
[15] = biological target: Mitogen-activated protein kinase 3 (Homo sapiens, UniProt P27361); experiment: Inhibition of ERK1
[16] = biological target: Phosphatidylinositol 4,5-bisphosphate 3-kinase catalytic subunit alpha isoform (Homo sapiens, UniProt P42336); experiment: Inhibition of PI3Kalpha
[17] = Volume of distribution at steady state in mouse at 3 mg/kg, iv and 10 mg/kg, po; format: ADME, organism-based; settings: in vivo, read-out: Vdss
[18] = biological target: Tyrosine-protein kinase JAK2 (Homo sapiens, UniProt O60674); experiment: Inhibition of JAK2
[19] = Half life in mouse at 3 mg/kg, iv and 10 mg/kg, po; format: ADME, organism-based; settings: in vivo
[20] = biological target: Vascular endothelial growth factor receptor 2 (Homo sapiens, UniProt P35968); experiment: Inhibition of KDR
[21] = biological target: Protein kinase C beta type (Homo sapiens, UniProt P05771); experiment: Inhibition of PKCbeta
[22] = Oral bioavailability in mouse at 10 mg/kg; format: ADME, organism-based; settings: in vivo
[23] = biological target: Cyclin-dependent kinase 2 (Homo sapiens, UniProt P24941); experiment: Inhibition of CDK2
[24] = biological target: Serine/threonine-protein kinase PLK1 (Homo sapiens, UniProt P53350); experiment: Inhibition of Plk
[25] = Clearance in mouse at 3 mg/kg, iv and 10 mg/kg, po; format: ADME, organism-based; settings: in vivo
[26] = Mean residence time in mouse at 3 mg/kg, iv and 10 mg/kg, po; format: ADME, organism-based; settings: in vivo
[27] = biological target: Tyrosine-protein kinase ZAP-70 (Homo sapiens, UniProt P43403); experiment: Inhibition of ZAP70
[28] = Apparent volume of distribution in mouse at 3 mg/kg, iv and 10 mg/kg, po; format: ADME, organism-based; settings: in vivo, read-out: Vz
[29] = biological target: Mitogen-activated protein kinase 10 (Homo sapiens, UniProt P53779); experiment: Inhibition of JNK3
[30] = biological target: Tyrosine-protein kinase Lck (Homo sapiens, UniProt P06239); experiment: Inhibition of LCK
[31] = biological target: Receptor-type tyrosine-protein kinase FLT3 (Homo sapiens, UniProt P36888); experiment: Inhibition of Flt3
[32] = Permeability from apical to basolateral side of human Caco2 cells; format: ADME, cell-based; settings: Caco-2, read-out: permeability
[33] = Permeability from basolateral to apical side of human Caco2 cells; format: ADME, cell-based; settings: Caco-2, read-out: permeability

Chain of Protein kinase C delta type (Q05655 whole entry): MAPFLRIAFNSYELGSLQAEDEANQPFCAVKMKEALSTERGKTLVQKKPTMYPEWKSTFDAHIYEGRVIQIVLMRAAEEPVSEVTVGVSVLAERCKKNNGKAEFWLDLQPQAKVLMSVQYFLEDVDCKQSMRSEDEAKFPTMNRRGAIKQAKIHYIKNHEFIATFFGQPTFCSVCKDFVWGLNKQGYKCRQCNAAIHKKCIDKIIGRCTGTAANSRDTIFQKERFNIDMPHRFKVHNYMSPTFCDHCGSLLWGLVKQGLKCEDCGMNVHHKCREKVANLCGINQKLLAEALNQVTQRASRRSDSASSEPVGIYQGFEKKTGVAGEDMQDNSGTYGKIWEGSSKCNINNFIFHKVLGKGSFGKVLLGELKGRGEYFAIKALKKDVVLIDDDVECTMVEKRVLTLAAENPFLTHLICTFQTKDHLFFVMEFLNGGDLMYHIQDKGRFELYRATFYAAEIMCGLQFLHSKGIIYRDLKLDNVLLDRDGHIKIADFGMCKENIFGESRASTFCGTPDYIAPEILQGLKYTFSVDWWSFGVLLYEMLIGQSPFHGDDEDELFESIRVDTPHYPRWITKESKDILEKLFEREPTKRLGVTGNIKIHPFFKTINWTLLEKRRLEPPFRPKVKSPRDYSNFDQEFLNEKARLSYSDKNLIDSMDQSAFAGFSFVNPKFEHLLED
T1 sequence (Q04759 whole entry): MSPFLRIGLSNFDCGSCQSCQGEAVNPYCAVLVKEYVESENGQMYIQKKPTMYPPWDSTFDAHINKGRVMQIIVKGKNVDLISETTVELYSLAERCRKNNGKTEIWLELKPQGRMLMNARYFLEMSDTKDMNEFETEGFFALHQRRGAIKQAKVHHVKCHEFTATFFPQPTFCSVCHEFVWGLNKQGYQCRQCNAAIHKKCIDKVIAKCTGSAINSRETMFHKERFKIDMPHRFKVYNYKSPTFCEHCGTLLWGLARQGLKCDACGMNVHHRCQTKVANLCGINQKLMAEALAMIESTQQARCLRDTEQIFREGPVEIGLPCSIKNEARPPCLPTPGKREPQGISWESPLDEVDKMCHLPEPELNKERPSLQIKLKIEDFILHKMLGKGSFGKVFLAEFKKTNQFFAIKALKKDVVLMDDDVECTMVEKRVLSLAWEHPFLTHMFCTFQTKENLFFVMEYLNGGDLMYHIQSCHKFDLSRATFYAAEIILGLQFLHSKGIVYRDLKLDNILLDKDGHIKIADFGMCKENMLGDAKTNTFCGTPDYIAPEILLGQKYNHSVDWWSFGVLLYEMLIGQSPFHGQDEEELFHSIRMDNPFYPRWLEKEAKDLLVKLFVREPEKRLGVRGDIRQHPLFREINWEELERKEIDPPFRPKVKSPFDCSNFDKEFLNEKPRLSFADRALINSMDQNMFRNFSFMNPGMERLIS
Chain of Tyrosine-protein kinase Lyn (P07948 whole entry): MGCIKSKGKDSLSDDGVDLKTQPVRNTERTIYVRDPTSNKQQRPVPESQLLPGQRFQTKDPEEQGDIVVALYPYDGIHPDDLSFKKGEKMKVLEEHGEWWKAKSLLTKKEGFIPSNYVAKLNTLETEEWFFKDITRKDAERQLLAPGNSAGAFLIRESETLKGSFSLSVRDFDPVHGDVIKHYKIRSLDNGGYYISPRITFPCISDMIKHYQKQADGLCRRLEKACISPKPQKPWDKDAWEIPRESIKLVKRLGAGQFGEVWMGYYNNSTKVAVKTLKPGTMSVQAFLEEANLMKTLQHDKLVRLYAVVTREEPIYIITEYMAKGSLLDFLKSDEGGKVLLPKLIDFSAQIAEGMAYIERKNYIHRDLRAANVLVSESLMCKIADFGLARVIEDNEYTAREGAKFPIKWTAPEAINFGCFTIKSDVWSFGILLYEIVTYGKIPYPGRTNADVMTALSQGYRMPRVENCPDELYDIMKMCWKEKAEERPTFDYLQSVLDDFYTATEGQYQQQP
Chain of Receptor-type tyrosine-protein kinase FLT3 (P36888 whole entry): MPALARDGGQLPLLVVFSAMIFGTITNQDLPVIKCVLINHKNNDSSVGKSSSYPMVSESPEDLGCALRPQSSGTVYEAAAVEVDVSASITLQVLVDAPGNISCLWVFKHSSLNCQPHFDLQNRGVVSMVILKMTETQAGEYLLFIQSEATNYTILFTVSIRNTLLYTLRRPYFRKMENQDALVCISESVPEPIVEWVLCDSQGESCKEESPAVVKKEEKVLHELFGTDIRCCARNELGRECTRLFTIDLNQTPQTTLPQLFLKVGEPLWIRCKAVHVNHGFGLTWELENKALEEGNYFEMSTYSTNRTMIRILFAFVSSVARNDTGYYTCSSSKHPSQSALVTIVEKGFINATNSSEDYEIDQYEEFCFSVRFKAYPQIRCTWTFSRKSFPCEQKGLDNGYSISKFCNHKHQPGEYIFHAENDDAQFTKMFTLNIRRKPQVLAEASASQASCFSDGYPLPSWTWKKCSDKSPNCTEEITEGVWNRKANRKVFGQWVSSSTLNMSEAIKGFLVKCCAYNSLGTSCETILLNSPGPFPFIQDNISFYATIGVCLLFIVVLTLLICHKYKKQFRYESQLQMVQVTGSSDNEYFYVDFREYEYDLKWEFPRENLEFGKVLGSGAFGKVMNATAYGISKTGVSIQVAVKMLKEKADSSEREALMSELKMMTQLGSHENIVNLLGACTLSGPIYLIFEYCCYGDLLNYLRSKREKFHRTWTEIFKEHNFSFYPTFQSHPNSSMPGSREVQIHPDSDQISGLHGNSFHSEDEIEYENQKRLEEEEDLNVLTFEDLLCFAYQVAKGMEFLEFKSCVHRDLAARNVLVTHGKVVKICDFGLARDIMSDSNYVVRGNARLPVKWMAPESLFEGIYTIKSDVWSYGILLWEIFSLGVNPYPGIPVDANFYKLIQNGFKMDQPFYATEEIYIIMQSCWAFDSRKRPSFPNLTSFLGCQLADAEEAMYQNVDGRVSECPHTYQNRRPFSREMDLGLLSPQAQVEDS
Chain of Phosphatidylinositol 4,5-bisphosphate 3-kinase catalytic subunit gamma isoform (P48736 whole entry, canonical isoform): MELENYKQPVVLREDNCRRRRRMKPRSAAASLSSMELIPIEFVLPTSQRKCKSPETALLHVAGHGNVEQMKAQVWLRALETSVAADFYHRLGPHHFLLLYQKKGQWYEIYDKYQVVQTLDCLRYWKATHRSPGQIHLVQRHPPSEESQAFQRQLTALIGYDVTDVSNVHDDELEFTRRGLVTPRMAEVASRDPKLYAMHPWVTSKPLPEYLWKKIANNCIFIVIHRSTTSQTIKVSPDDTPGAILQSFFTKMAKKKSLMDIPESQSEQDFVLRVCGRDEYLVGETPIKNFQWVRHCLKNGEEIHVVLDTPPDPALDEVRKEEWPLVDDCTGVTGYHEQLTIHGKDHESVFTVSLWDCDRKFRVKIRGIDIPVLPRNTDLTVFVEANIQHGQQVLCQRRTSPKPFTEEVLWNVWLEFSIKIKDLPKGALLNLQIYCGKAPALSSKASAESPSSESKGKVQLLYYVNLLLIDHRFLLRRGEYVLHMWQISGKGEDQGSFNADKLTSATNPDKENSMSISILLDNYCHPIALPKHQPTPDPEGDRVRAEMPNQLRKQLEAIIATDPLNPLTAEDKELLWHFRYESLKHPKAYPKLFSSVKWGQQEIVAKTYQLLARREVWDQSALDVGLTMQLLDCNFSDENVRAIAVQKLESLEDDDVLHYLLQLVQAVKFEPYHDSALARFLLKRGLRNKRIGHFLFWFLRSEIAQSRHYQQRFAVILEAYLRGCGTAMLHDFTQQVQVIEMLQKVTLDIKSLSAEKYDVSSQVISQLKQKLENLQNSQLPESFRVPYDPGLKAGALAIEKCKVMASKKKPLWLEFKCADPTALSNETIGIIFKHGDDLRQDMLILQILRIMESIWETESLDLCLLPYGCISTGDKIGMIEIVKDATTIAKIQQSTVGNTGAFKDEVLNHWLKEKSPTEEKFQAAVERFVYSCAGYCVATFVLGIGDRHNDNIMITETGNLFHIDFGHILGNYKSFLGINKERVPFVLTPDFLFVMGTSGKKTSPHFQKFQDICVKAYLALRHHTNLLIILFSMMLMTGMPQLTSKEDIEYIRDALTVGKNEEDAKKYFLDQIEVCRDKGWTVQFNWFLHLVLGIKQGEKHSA
Chain of Mitogen-activated protein kinase 3 (P27361 whole entry, canonical isoform): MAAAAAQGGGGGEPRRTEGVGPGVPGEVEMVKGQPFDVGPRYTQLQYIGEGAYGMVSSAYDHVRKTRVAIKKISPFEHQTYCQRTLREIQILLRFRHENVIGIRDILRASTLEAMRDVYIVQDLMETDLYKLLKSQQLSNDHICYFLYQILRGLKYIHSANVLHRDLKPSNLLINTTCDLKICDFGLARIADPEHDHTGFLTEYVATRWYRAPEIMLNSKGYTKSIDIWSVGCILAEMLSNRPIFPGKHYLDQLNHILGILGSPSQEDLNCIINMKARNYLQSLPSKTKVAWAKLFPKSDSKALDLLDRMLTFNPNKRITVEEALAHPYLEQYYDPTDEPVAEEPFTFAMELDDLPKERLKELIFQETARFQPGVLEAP

Q: Which Ki [1] does the source give for CC(C)C[C@H]1CN(c2ccc(C3CC3)c(C(=O)c3cccnc3N)n2)CCN1 here?
A: Its Ki is 2650 nM.

Q: Which Ki [2] does the source give for Nc1ncccc1C(=O)c1cccc(N2CCC(N)C2)n1 (configuration not stated) here?
A: The Ki was 1520 nM.

Q: Which Ki [1] does the source give for CCCc1ccc(N2CCN[C@@H](CC(C)C)C2)nc1C(=O)c1cccnc1N here?
A: The Ki was 1230 nM.

Q: For Cc1cc(C(=O)c2cccnc2N)nc(N2CCN[C@@H](CC(C)C)C2)c1, which Ki [1] is on record?
A: Its Ki is 459 nM.

Q: For CC(C)C[C@H]1CN(c2ccc(Cl)c(C(=O)c3cccnc3N)n2)CCN1, which Ratio Ki [3] is on record?
A: The Ratio Ki was 38.

Q: And the Ki [4]?
A: The Ki was 22 nM.

Q: And the Ratio Ki [5]?
A: The Ratio Ki was greater than 4000.

Q: What about the Ratio Ki [6] of the same compound?
A: The Ratio Ki was 255.

Q: And the IC50 [7]?
A: The IC50 was 58 nM.

Q: And the Ki [1]?
A: Its Ki is 49 nM.

Q: What about the Ki [2] of the same compound?
A: Its Ki is 2 nM.

Q: Which Ratio Ki [3] does the source give for CC(C)C[C@H]1CN(c2ccc(OC(F)F)c(C(=O)c3cccnc3N)n2)CCN1 here?
A: The Ratio Ki was 84.

Q: And the Ki [4]?
A: Its Ki is 87 nM.

Q: What about the Ratio Ki [5] of the same compound?
A: The Ratio Ki was greater than 570.

Q: What about the Ratio Ki [6] of the same compound?
A: Its Ratio Ki is greater than 570.

Q: And the IC50 [7]?
A: The IC50 was 229 nM.

Q: What about the Ki [1] of the same compound?
A: Its Ki is 459 nM.

Q: What about the Ki [2] of the same compound?
A: Its Ki is 7 nM.

Q: For CC(C)C[C@H]1CN(c2cccc(C(=O)c3cccnc3N)n2)CCN1, which Ratio Ki [3] is on record?
A: The Ratio Ki was 60.

Q: And the Ki [4]?
A: Its Ki is 20 nM.

Q: And the Ratio Ki [5]?
A: Its Ratio Ki is greater than 1400.

Q: And the Ratio Ki [6]?
A: Its Ratio Ki is 143.

Q: What about the IC50 [7] of the same compound?
A: The IC50 was 165 nM.

Q: And the Ki [1]?
A: Its Ki is 54 nM.

Q: And the Ki [2]?
A: Its Ki is 3 nM.

Q: With CC(C)C[C@H]1CN(c2ccc(C(F)(F)F)c(C(=O)c3cccnc3N)n2)CCN1 as the compound, how does the IC50 [8] read?
A: Its IC50 is greater than 2000 nM.

Q: What about the Ki [9] of the same compound?
A: Its Ki is greater than 4000 nM.

Q: And the fCmax (Plasma)?
A: The fCmax was 150 nM.

Q: What about the IC50 [10] of the same compound?
A: The IC50 was greater than 2000 nM.

Q: And the IC50 [11]?
A: The IC50 was greater than 2000 nM.

Q: And the IC50 [12]?
A: Its IC50 is greater than 2000 nM.

Q: What about the Ki [13] of the same compound?
A: Its Ki is greater than 4000 nM.

Q: And the Ki [14]?
A: Its Ki is 17 nM.

Q: And the IC50 [15]?
A: Its IC50 is greater than 2000 nM.

Q: What about the Ki [4] of the same compound?
A: The Ki was 37 nM.

Q: What about the Ki [16] of the same compound?
A: The Ki was greater than 4000 nM.

Q: What about the Vd [17] of the same compound?
A: Its Vd is 15.8 L/kg.

Q: And the Ki [18]?
A: Its Ki is greater than 4000 nM.

Q: And the half-life [19]?
A: The half-life was 1.3 h.

Q: And the Ki [20]?
A: Its Ki is greater than 4000 nM.

Q: And the Ki [21]?
A: The Ki was 260 nM.

Q: And the bioavailability [22]?
A: Its bioavailability is 45%.

Q: And the Ki [23]?
A: Its Ki is greater than 4000 nM.

Q: And the Ki [24]?
A: Its Ki is greater than 4000 nM.

Q: What about the clearance [25] of the same compound?
A: Its clearance is 203 mL/min/kg.

Q: And the MRT [26]?
A: Its MRT is 1.4 h.

Q: And the IC50 [27]?
A: Its IC50 is greater than 2000 nM.

Q: And the Vd [28]?
A: Its Vd is 19.7 L/kg.

Q: And the IC50 [7]?
A: The IC50 was 52 nM.

Q: What about the Ki [29] of the same compound?
A: The Ki was greater than 4000 nM.

Q: What about the Ki [1] of the same compound?
A: Its Ki is 76 nM.

Q: What about the IC50 [30] of the same compound?
A: The IC50 was greater than 2000 nM.

Q: And the Ki [2]?
A: Its Ki is 3 nM.

Q: What about the Ki [31] of the same compound?
A: Its Ki is 580 nM.

Q: What does the source list for Nc1ncccc1C(=O)c1cccc(N2CCCNCC2)n1?
A: Papp A→B [32]: 9 ×10⁻⁶ cm/s; Papp B→A [33]: 11 ×10⁻⁶ cm/s

Q: Which Ki [1] does the source give for CC(C)C[C@H]1CN(c2ccc(Cc3ccccc3)c(C(=O)c3cccnc3N)n2)CCN1 here?
A: The Ki was greater than 1250 nM.
